From patent US20110178134A1, “Novel phenyl-substituted imidazolidines, process for preparation thereof, medicaments comprising said compounds and use thereof” (SANOFI-AVENTIS, priority 2008, published 2011)
Like-named read-outs stand apart in the source and are kept apart here.

Experiments:
[1] = target: human cannabinoid receptor 1 (hCB1R) (Homo sapiens, UniProt P21554); assay: Binding to human cannabinoid receptor 1 (hCB1R), [3H]-SR141716A displacement
Method: Binding to Human Cannabinoid Receptor 1 (hCB1R):
Test compounds: The compounds (3 μl, 10 mM, 100% DMSO), pipetted into 96-well PP microtiter plates, were diluted with 27 μl of 100% DMSO (dimethyl sulfoxide). Proceeding from this solution, further 3-fold dilution steps were undertaken by transferring […] in each case to a new PP microtiter plate and adding a further 20 μl of 100% DMSO. In each case 6 μl of these solutions were transferred into new 96-well PP microtiter plates and made up with 144 μl of assay buffer. The end concentrations ranged from 10 μM to 0.005 μM.
Negative control: AM 251, dissolved in assay buffer with 1% DMSO, was added to the dilution series in the microtiter plates as a control. The end concentration was 1 μM.
Blank control: assay buffer with 1% DMSO was added to the dilution series of the microtiter plates as a blank control.
Summary of the Assay Parameters:
High control: ^3H binding without addition of the compound
Low control: ^3H binding in the presence of 1 μM AM 251
The values were calculated using the corrected raw data.
The values reported were obtained as average values of a double determination. The IC50 values were calculated from the measurements with the program Xlfit, formula 205. Ki values were obtained from the IC50 and Kd values utilizing the Cheng-Prusoff equation: […]
Literature: Cheng, Y.-C., and Prusoff, W. H. (1973) Biochem. Pharmacol 22, 3099-3108

[2] = target: T1, human androgen receptor (hAR) (Homo sapiens, UniProt P10275, T878A); assay: Binding assay with human androgen receptor, [3H]methyltrienolone, LNCaP cytosol; conditions: for inhibition at 10 µM / inhibition at 1 µM: inhibition of [3H]methyltrienolone binding; for inhibition at 10 µM: compound 10 μM; for inhibition at 1 µM: compound 1 μM
T1 construct: for the preparation of cytosolic receptor protein, the androgen-sensitive human prostate adenocarcinoma cell line LNCaP was used; endogenous in cells; host or cells: LNCaP (human prostate adenocarcinoma) cell cytosol fraction
T1 sequence (P10275 1-920 T878A): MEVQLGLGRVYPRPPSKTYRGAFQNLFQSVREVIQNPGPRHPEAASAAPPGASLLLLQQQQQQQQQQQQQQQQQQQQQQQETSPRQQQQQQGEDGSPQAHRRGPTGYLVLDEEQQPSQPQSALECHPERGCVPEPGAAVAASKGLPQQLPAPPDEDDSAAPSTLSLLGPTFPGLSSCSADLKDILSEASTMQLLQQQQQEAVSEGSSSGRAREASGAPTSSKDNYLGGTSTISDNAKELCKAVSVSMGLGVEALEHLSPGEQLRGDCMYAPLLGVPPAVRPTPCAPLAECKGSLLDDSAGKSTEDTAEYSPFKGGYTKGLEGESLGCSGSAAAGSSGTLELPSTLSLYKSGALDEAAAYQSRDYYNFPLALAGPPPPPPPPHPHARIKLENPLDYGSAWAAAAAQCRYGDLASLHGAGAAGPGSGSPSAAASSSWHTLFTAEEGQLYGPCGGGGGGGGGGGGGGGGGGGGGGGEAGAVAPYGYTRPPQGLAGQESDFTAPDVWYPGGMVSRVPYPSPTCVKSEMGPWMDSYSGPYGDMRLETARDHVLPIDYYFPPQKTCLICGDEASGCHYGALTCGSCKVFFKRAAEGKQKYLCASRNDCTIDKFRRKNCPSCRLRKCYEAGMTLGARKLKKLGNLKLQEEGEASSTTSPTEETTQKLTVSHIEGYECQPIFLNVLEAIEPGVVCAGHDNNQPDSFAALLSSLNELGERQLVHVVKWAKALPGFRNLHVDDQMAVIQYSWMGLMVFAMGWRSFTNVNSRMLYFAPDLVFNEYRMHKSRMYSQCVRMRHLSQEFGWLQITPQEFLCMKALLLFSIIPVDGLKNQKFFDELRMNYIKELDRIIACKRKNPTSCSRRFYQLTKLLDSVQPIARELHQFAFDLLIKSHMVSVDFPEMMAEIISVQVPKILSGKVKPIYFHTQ
Method: Binding Assay with Human Androgen Receptor:
The binding assays on the androgen receptor were conducted according to the method of D. T. Zava et al. (1979) (“Androgen Receptor Assay with [^3H]Methyltrienolone (R1881) in the Presence of Progesterone Receptor”, Endocrinology, 104, 1007-1012). The radioactive ligand used for the binding measurement was [^3H]methyltrienolone and the reference substance was the same compound in unmarked (=nonradioactive) form. To determine the unspecific proportion of binding, 1 μM mibolerone was used. In a departure from the method cited, for the preparation of cytosolic receptor protein, the androgen-sensitive human prostate adenocarcinoma cell line LNCaP was used. For the analysis, aliquots of a cell cytosol fraction (proceeding from 10^6 cells per analysis point) were incubated, in a buffer in the presence or absence of test substance, with 0.5 nM [^3H]methyltrienolone at 4° C. for 24 hours (25 mM HEPES/Tris, 1 mM EDTA, 10 mM Na2MoO4, 2 mM DTT, 10% glycerol; pH 7.4). The samples were then mixed with 400 μl each of an activated carbon suspension and the mixtures were centrifuged (10 minutes, 8000×g). Supernatants were withdrawn and mixed with 5 ml each of scintillation cocktail, and the radioactivity of the samples was measured in a scintillation counter. Specific ligand binding to the receptors was calculated as the difference between total binding and the unspecific binding in the presence of an excess of nonmarked ligand. End results were represented as percent specific binding compared to the binding of control substance.
The strength of the binding to the human androgen receptor is expressed as percent inhibition of the binding of [^3H]methyltrienolone to the human androgen receptor. The concentration of the compounds examined is 1 μM or 10 μM. The greater the numerical value of “percent inhibition at 1 or 10 μM”, the stronger is the binding of the test substance to the human androgen receptor. Alternatively, the Ki value is reported; the greater this value compared to the Ki value based on the binding to the hCB1R, the lower is the binding to the hAR.

[3] = CHO-K1/cannabinoid CB1 protein, 0.5 nM [3H]-SR141716A, Cheng-Prusoff, read-out: hCB1R, binding Ki

human cannabinoid receptor 1 (hCB1R), sequence (P21554 whole entry): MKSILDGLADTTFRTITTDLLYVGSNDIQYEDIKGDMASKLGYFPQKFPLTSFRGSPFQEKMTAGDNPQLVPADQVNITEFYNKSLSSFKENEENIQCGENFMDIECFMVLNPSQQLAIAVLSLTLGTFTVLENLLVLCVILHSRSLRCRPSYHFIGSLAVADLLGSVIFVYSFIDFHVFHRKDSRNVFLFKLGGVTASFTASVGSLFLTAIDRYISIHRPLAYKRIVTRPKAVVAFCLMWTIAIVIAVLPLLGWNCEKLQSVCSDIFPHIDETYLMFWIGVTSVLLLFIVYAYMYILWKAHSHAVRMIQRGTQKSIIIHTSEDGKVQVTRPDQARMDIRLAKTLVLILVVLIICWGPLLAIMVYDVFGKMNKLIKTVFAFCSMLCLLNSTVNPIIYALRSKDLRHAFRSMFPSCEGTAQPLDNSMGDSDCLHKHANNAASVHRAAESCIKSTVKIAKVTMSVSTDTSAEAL

| SMILES | Ki [1] | Ki [1, 3] | inhibition at 1 µM [2] | also measured |
| --- | --- | --- | --- | --- |
| CC1(C)C(=O)N(c2ccc(C#N)c(C(F)(F)F)c2)C(=O)N1Cc1ccc(C(F)(F)F)cc1 [4-[4,4-dimethyl-2,5-dioxo-3-(4-trifluoromethylbenzyl)-imidazolidin-1-yl]-2-trifluoromethylbenzonitrile, reference compound] | 76 nM | – | – | Ki ([2]; read-out: Ki value based on binding to the human androgen receptor): 96 nM |
| CC1(C)C(=O)N(c2ccc(C#N)c(C(F)(F)F)c2)C(=O)N1Cc1cc(C(F)(F)F)cc(C(F)(F)F)c1 [Example 1, 4-[3-(3,5-bis(trifluoromethyl)benzyl)-4,4-dimethyl-2,5-dioxoimidazolidin-1-yl]-2-trifluoromethylbenzonitrile] | 4 nM | – | – | inhibition at 10 µM [2]: 26% |
| CC1(C)C(=O)N(c2ccc(C#N)c(C(F)(F)F)c2)C(=O)N1Cc1ccc(OC(F)(F)F)cc1 [Example 2, 4-[4,4-dimethyl-2,5-dioxo-3-(4-trifluoromethoxybenzyl)imidazolidin-1-yl]-2-trifluoromethylbenzonitrile] | – | 200 nM | 20% | – |
| CC1(C)C(=O)N(c2ccc(C#N)c(C(F)(F)F)c2)C(=O)N1Cc1cccc(C(F)(F)F)c1 [Example 3, 4-[4,4-dimethyl-2,5-dioxo-3-(3-trifluoromethylbenzyl)imidazolidin-1-yl]-2-trifluoromethylbenzonitrile] | – | 127 nM | 54% | – |
| CC1(C)C(=O)N(c2ccc(C#N)c(C(F)(F)F)c2)C(=O)N1Cc1ccc(Cl)nc1 [Example 5, 4-[3-(6-chloropyridin-3-ylmethyl)-4,4-dimethyl-2,5-dioxoimidazolidin-1-yl]-2-trifluoromethylbenzonitrile] | 25 nM | – | 86% | – |
| CC1(C)C(=O)N(c2ccc(C#N)c(C(F)(F)F)c2)C(=O)N1Cc1ccc(C(F)(F)F)nc1 [Example 6, 4-[4,4-dimethyl-2,5-dioxo-3-(6-trifluoromethylpyridin-3-ylmethyl)-imidazolidin-1-yl]-2-trifluoromethylbenzonitrile] | 11 nM | – | 84% | – |
| CC1(C)C(=O)N(c2ccc(F)c(C(F)(F)F)c2)C(=O)N1Cc1ccc(C(F)(F)F)nc1 [Example 7, 3-(4-fluoro-3-trifluoromethylphenyl)-5,5-dimethyl-1-(6-trifluoromethyl-pyridin-3-ylmethyl)imidazolidine-2,4-dione] | – | 205 nM | 47% | – |
| CC1(C)C(=O)N(c2ccc(Cl)c(C(F)(F)F)c2)C(=O)N1Cc1ccc(C(F)(F)F)nc1 [Example 8, 3-(4-chloro-3-trifluoromethylphenyl)-5,5-dimethyl-1-(6-trifluoromethyl-pyridin-3-ylmethyl)imidazolidine-2,4-dione] | – | 227 nM | 53% | – |
| CC1(C)C(=O)N(c2ccc(F)c(C(F)(F)F)c2)C(=O)N1Cc1cc(C(F)(F)F)cc(C(F)(F)F)c1 [Example 9, 1-(3,5-bis(trifluoromethyl)benzyl)-3-(4-fluoro-3-trifluoromethylphenyl)-5,5-dimethylimidazolidine-2,4-dione] | – | 295 nM | – | inhibition at 10 µM [2]: 3% |
| CC1(C)C(=O)N(c2ccc(Cl)c(C(F)(F)F)c2)C(=O)N1Cc1cc(C(F)(F)F)cc(C(F)(F)F)c1 [Example 10, 1-(3,5-bis(trifluoromethyl)benzyl)-3-(4-chloro-3-trifluoromethylphenyl)-5,5-dimethylimidazolidine-2,4-dione] | 81 nM | – | 3% | – |
| CC1(C)C(=O)N(c2ccc(C#N)c(C(F)(F)F)c2)C(=O)N1Cc1cccc(S(F)(F)(F)(F)F)c1 [Example 11, 4-[4,4-dimethyl-2,5-dioxo-3-(3-pentafluorosulfanylbenzyl)imidazolidin-1-yl]-2-trifluoromethylbenzonitrile] | 17 nM | – | 39% | – |
| CC1(C)C(=O)N(c2ccc(C#N)c(C(F)(F)F)c2)C(=O)N1Cc1ccc(OCc2ccccc2)c(OCc2ccccc2)c1 [Example 33, 4-[3-(3,4-bis(benzyloxy)benzyl)-4,4-dimethyl-2,5-dioxoimidazolidin-1-yl]-2-trifluoromethylbenzonitrile] | 26 nM | – | – | Ki ([2]; reported instead of % inhibition in table 5, read-out: hAR, Ki): > 1000 nM |
| CC1(C)C(=O)N(c2ccc(C#N)c(C(F)(F)F)c2)C(=O)N1Cc1ccccc1Oc1ccccc1 [Example 34, 4-[4,4-dimethyl-2,5-dioxo-3-(2-phenoxybenzyl)imidazolidin-1-yl]-2-trifluoromethylbenzonitrile] | 6 nM | – | 30% | – |
| CC1(C)C(=O)N(c2ccc(Cl)c(C(F)(F)F)c2)C(=O)N1Cc1ccc(OCc2ccccc2)c(OCc2ccccc2)c1 [Example 37] | – | 219 nM | – | inhibition at 10 µM [2]: 4% |
| CC1(C)C(=O)N(c2ccc(F)c(C(F)(F)F)c2)C(=O)N1Cc1ccccc1Oc1ccccc1 [Example 44, 3-(4-fluoro-3-trifluoromethylphenyl)-5,5-dimethyl-1-(2-phenoxybenzyl)imidazolidine-2,4-dione] | – | 100 nM | – | inhibition at 10 µM [2]: 15% |
| CC1(C)C(=O)N(c2ccc(F)c(C(F)(F)F)c2)C(=O)N1Cc1ccc(F)cc1NS(N)(=O)=O [Example 52, N-{5-fluoro-2-[3-(4-fluoro-3-trifluoromethylphenyl)-5,5-dimethyl-2,4-dioxoimidazolidin-1-ylmethyl]phenyl}sulfamide] | 41 nM | – | 52% | – |
